For data set [1] the following is noted: rat, in vivo.
Procedure: Rats were obtained commercially and were pre-cannulated in the jugular vein. Animals were conscious at the time of the experiment. All animals were fasted overnight and until 4 hours post-dosing of a prodrug of Formula (I).
Rat blood samples (0.3 mL/sample) were collected from all animals prior to dosing and at different time-points up to 24 h post-dose into tubes containing EDTA. Two aliquots (100 μL each) were quenched with 300 μL methanol and stored at −20° C. prior to analysis.
To prepare analysis standards, 90 μL of rat blood was quenched with 300 μL methanol followed by 10 μL of spiking standard and/or 20 μL of internal standard. The sample tubes were vortexed for at least 2 min and then centrifuged at 3400 rpm for 20 min. […]
LC-MS-MS analysis was performed using an API 4000 equipped with Agilent 1100 HPLC and a Leap Technologies autosampler. […] Acamprosate was monitored in negative ion mode. […] Prodrug was monitored in positive ion mode. […]
The percent relative bioavailability (F %) of acamprosate was determined by comparing the area under the acamprosate concentration vs time curve (AUC) following oral or colonic administration of an acamprosate prodrug or acamprosate with the AUC of the acamprosate concentration vs time curve following intravenous administration of acamprosate on a dose normalized basis.
For data set [2] the following is noted: post-dose; doses about 1-2 gm per day; cited from earlier work.
The subject of the next data set is cocaine conditioned mice. Conditions: 100 mg/kg acamprosate for 3 days; cited from earlier work.

As to `CC(=O)NCCCS(=O)(=O)OCC(C)(C)[C@@H](O)C(=O)OC(C)OC(=O)OC(C)C` (stereo partly drawn) [Compound 40, (Methylethoxycarbonyloxy)ethyl (2R)-4-{[3-(acetylamino)propyl]sulfonyloxy}-2-hydroxy-3,3-dimethylbutanoate], in data set [1], the “acamprosate colonic bioavailability relative to the acamprosate colonic bioavailability of an equivalent dose of acamprosate itself” value is recorded as “at least 5 times” and the “acamprosate oral bioavailability relative to the acamprosate oral bioavailability of an equivalent dose of acamprosate itself” value is given as “at least 5 times”.

For `CC(=O)NCCCS(=O)(=O)O` [acamprosate, 3-(Acetylamino)propylsulfonic acid], the “time at which steady-state plasma concentration occurs” value in data set [2] was 3 to 8 h. Further, in the data set with cocaine conditioned mice, the relapse-like behavior entry was “attenuated relapse-like behavior”.

The values above are taken from patent US8168617B2, “Complex pantoic acid ester neopentyl sulfonyl ester cyclization release prodrugs of acamprosate, compositions thereof, and methods of use” (XenoPort, Inc., priority 2007, dated 2012).
